The values below come from article PMC4676015, “Variant fatty acid-like molecules Conjugation, novel approaches for extending the stability of therapeutic peptides” (Scientific Reports, 2015).

The structures appear in SMILES notation.

What is called Kd is a measure of binding affinity in units of concentration. Read a high Kd as a looser complex.

Series [1] has as its target T1, GLP-1 receptor (GLP-1R) (Rattus norvegicus, UniProt P32301).
T1 construct: endogenous in cells; host or cells: rat INS-1 cells
T1 sequence (P32301 22-463): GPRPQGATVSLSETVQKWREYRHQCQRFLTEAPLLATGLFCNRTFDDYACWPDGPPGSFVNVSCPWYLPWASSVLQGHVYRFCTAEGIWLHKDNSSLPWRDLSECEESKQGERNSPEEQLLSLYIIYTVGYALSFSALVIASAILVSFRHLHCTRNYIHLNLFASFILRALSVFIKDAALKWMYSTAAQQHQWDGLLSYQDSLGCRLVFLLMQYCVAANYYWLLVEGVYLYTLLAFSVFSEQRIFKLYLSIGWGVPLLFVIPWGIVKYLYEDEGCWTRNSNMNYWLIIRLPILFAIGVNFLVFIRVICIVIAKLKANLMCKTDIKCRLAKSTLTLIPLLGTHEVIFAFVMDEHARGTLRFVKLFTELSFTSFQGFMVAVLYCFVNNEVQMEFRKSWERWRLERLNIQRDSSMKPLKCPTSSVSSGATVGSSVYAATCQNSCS
The series can be described thus: GLP-1 receptor binding assay (cellular ELISA). The gist of the method: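 Cells were fixed with 4% paraformaldehyde, quenched with 2% glycine (pH 7.5), then incubated with peptides for 2 h at 37 °C, washed and blocked with 5% BSA. Absorbance was read at 450 nm. Kd was fitted from peptide concentration versus absorbance.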
Background: In an ELISA, binding on a coated surface is turned into a signal by an enzyme label.

The target of series [2] is T2, DPP IV enzyme (Homo sapiens, UniProt P27487).
T2 construct: purchased Sigma-Aldrich
T2 sequence (P27487 whole entry, species assumed): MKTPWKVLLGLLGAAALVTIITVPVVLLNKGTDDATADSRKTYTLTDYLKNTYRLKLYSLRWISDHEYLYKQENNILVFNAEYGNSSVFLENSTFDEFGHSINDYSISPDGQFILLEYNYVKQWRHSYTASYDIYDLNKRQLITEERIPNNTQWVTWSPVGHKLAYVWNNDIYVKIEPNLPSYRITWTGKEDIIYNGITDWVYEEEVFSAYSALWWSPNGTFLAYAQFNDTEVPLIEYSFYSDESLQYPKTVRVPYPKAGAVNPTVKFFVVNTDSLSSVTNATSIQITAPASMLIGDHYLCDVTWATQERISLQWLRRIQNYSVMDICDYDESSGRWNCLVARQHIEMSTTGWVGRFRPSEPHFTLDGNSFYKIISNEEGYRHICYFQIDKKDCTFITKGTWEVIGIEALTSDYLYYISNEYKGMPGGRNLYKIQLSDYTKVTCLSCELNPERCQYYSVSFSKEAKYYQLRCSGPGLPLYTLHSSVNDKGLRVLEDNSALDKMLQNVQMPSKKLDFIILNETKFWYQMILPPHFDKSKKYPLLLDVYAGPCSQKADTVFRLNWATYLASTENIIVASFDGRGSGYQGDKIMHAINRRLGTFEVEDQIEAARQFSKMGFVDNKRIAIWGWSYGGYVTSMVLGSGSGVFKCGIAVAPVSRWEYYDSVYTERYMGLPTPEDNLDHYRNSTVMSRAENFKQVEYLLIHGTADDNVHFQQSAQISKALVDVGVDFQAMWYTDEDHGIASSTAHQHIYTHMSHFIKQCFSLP
Description: Stability against DPP IV proteolysis with or without HSA. Type of series: in vitro ADME.
Description: DPP IV enzyme (0.1 mg/ml) was dissolved in 25 mM potassium phosphate buffer containing 25 mM potassium chloride and 5 mM magnesium chloride, pH 7.0.

Series [3] has as its system Wistar rats. The series can be described thus: Single-dose glucoregulatory assay (glucose tolerance test). Type of series: in vivo. Particulars: calculated from the single dose glucose tolerance test in rats. The method, then:
In this assay, the derivatives were administered once, and the blood glucose levels were monitored over 120 h. It was presumed that the apparent half-lives of the derivatives could be obtained by this single-dose glucose tolerance test, which would be beneficial for the determination of the administration frequency in future long-term glucose tolerance tests. Each derivative (300 μg/kg body weight) was subcutaneously injected into fasting male Wistar rats (n = 7 per group) 30 min prior to glucose administration. GLP-1 and saline were injected into the control animals. Rats were given 2 g glucose/kg body weight via intraperitoneal injections. Blood was drawn from the tail vein, and glucose levels were measured using a glucometer 30 min after glucose administration. Chronic glucose injections (2 g/kg body weight) were administered 30 min prior to each blood glucose measurement time point during the 120-h experimental period.

Series [4] deals with Wistar rats. Description: Toxicity study of compound 24 in Wistar rats (blood biochemistry, haematology). Particulars: Wistar rats and Kunming mice, GLP guideline of China. It counts as in vivo. The method, then: Wistar rats (n = 8) and Kunming mice (n = 30) were employed in this study to investigate the acute toxicity of compound 24. Compound 24 was intraperitoneally administered with three doses of 5, 15 and 50 mg/kg/2 days for 30 days. Controls received a similar volume of sodium dihydrogen phosphate. At the end of the experimental period, overnight fasted animals were sacrificed by cervical decapitation under light ether anesthesia and blood was collected, serum was separated by centrifuging at 3,000 rpm for 10 min. The serum was used for the assay of the biochemical parameters using Chemistry Analyzer […] (Vital, Netherlands).

A short description of series [5]: Blood retention time measurement. The note with it: 500 μg/kg s.c., Wistar rats, n = 5; 0.5-96 h; GLP-1 (7–37) ELISA.

Molecule `CC[C@H](C)[C@H](NC(=O)[C@H](Cc1ccccc1)NC(=O)[C@H](CCC(=O)NCCCCCCCCCCCC(=O)O)NC(=O)[C@H](CCCCN)NC(=O)[C@H](C)NC(=O)[C@H](C)NC(=O)[C@H](CCC(N)=O)NC(=O)CNC(=O)[C@H](CCC(=O)O)NC(=O)[C@H](CC(C)C)NC(=O)[C@H](Cc1ccc(O)cc1)NC(=O)[C@H](CO)NC(=O)[C@H](CO)NC(=O)[C@@H](NC(=O)[C@H](CC(=O)O)NC(=O)[C@H](CO)NC(=O)[C@@H](NC(=O)[C@H](Cc1ccccc1)NC(=O)[C@@H](NC(=O)CNC(=O)[C@H](CCC(=O)O)NC(=O)[C@H](C)NC(=O)[C@@H](N)Cc1c[nH]cn1)[C@@H](C)O)[C@@H](C)O)C(C)C)C(=O)N[C@@H](C)C(=O)N[C@@H](Cc1c[nH]c2ccccc12)C(=O)N[C@@H](CC(C)C)C(=O)N[C@H](C(=O)N[C@@H](CCCCN)C(=O)NCC(=O)N[C@@H](CCCNC(=N)N)C(=O)NCC(=O)O)C(C)C` [compound 24] registered a Kd in series [1] of 17.6 ± 1.76 nM. The “detectability of full-length peptide at 24 h” value in series [2] (DPP IV 0.1 mg/ml, pH 7.0, in the presence of human serum albumin (2%), peptide 1 mg/ml, 37 °C, GLP-1 (7–37) ELISA) is listed as “still detectable at 24 h”. Further, the “AUC0–24 h, amount of undigested GLP-1 fragments compared with wild-type GLP-1” value in series [2] (DPP IV proteolysis solution, 37 °C, 0-24 h, GLP-1 (7–37) ELISA, P < 0.01) was “approximately 3.5 fold”. The “AUCGLP-1(7–37) in proteolysis solution compared to native GLP-1” value in series [2] (DPP IV proteolysis solution, 37 °C, GLP-1 (7–37) ELISA, P < 0.01) is listed as “significantly increased”. For the same molecule, the “degradation rate against DPP IV compared with compounds 6 and 21, respectively” value in series [2] (DPP IV proteolysis, same carbon chain length without free carboxyl group as comparator) is “significantly lower degradation rates”. Besides, the observed half-life in series [3] is 9.6 h. In addition, the “acute toxicity and blood biochemistry tests” value in series [4] is listed as “no toxicity was observed”. Further, in series [5], the “increase of circulating amount (AUC GLP-1 (7-37)) compared with native GLP-1” value was found to be 2.7 fold.
